Assay results: patent publication US20240109893A1, “PREPARATION AND APPLICATION METHOD OF HETEROCYCLIC COMPOUNDS AS KRAS INHIBITOR” (SHANGHAI KECHOW PHARMA, INC., priority 2020, published 2024)

System: H358 cells
Experiment: Cell activity experiment: activity test of H358 cells (MTT, 5 days)
Type: cell-based
Conditions: 5 days incubation, absorbance 492 nm
Outline: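 Viability was read by MTT: 4 h dye incubation, DMSO solubilisation, absorbance at 492 nm. This followed 5 days' treatment (37° C., 5% CO2) of H358 cells, pre-grown 24 h, with eight-point 3-fold dilutions up to 10000 nM final, 0.5% DMSO final, triplicate wells.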

IC50 (Homo sapiens, NCI-H358, 120 h) [nM] | IC50 [nM] | Compound
10 |  | C=CC(=O)N1CC[C@@H]2[C@H]1CN2c1nc(OCC23CCCN2CCC3)nc2c(F)c(-c3ccc(F)c4c3CCCC4)ncc12 [Example 29]
5 |  | C=C(F)C(=O)N1CCN(c2nc(OCC34CCCN3CCC4)nc3c(F)c(-c4cncc5cccc(Cl)c45)ccc23)C[C@@H]1CC#N [Example 163, (S)-2-(4-(7-(5-chloroisoquinolin-4-yl)-8-fluoro-2-((tetrahydro-1H-pyrrolizin-7a(5H)-yl)methoxy)quinazolin-4-yl)-1-(2-fluoroacryloyl)piperazin-2-yl)acetonitrile]
15 |  | C=C(F)C(=O)N1CCN(c2nc(OC[C@@H]3CCCN3C)nc3cc(-c4cccc5ccc(F)c(Cl)c45)ccc23)C[C@@H]1CC#N [Example 94, 2-((S)-4-(7-(8-chloro-7-fluoronaphthalen-1-yl)-2-(((S)-1-methylpyrrolidin-2-yl)methoxy)quinazolin-4-yl)-1-(2-fluoroacryloyl)piperazin-2-yl)acetonitrile]
 | 9.5 | C=CC(=O)N1CCN(c2nc(OC[C@@]34CCCN3C[C@H](F)C4)nc3c(F)c(-c4cccc5c4CC4CC54)ncc23)C[C@@H]1CC#N (single isomer, unassigned) [Example 877]
16 |  | C=CC(=O)N1CC[C@@H]2[C@H]1CN2c1nc(OC[C@@H]2C[C@@H](F)CN2C)nc2c(F)c(-c3cncc4c3CCCC4)ncc12 [Example 43]
0.11 |  | C=CC(=O)N1CCN(c2nc(OC[C@@]34CCCN3C[C@H](F)C4)nc3c(F)c(-c4cccc5ccc(F)c(Cl)c45)ccc23)C[C@@H]1CC#N [Example 368]
138 |  | C=CC(=O)N1CCN(c2c(C#N)c(OCC34CCCN3CCC4)nc3cc(-c4cccc5ccc(F)c(Cl)c45)ccc23)C[C@@H]1CC#N [Example 620]
30 |  | C=C(F)C(=O)N1CCN(c2nc(OC[C@@]34CCCN3C[C@H](F)C4)nc3c(F)c(-c4cncc5c4CCCC5)ncc23)C[C@@H]1CC#N [Example 40]
0.49 |  | C=CC(=O)N1CCN(c2nc(OCC34CCCN3CCC4)nc3cc(-c4cccc5ccc(F)c(Cl)c45)ccc23)C[C@@H]1CC#N [Example 97, (S)-2-(1-acryloyl-4-(7-(8-chloro-7-fluoronaphthalen-1-yl)-2-((tetrahydro-1H-pyrrolizin-7a(5H)-yl)methoxy)quinazolin-4-yl)piperazin-2-yl)acetonitrile]
3.6 |  | C=C(F)C(=O)N1CCN(c2nc(OC[C@@H]3CCCN3C)nc3c(F)c(-c4cccc5ccc(F)c(Cl)c45)ccc23)C[C@@H]1CC#N [Example 913]
80 |  | C=C(F)C(=O)N1CCN(c2nc(OC[C@@H]3CCCN3C)nc3c(F)c(-c4cncc5c4CCCC5)ncc23)C[C@@H]1CC#N [Example 34, 2-((S)-4-(8-fluoro-2-(((S)-1-methylpyrrolidin-2-yl)methoxy)-7-(5,6,7,8-tetrahydroisoquinolin-4-yl)pyridino[4,3-d]pyrimidin-4-yl)-1-(2-fluoroacryloyl)piperazin-2-yl)acetonitrile]
10 |  | C=CC(=O)N1CC[C@@H]2[C@H]1CN2c1nc(OCC23CCCN2CCC3)nc2c(F)c(-c3cncc4c3CCCC4)ncc12 [Example 45, 1-((1R,5R)-6-(8-fluoro-2-((tetrahydro-1H-pyrrolizin-7a(5H)-yl)methoxy)-7-(5,6,7,8-tetrahydroisoquinoline-4-yl)pyridino[4,3-d]pyrimidin-4-yl)-2,6-diazabicyclo[3.2.0]hept-2-yl)prop-2-en-1-one]
20 |  | C=CC(=O)N1CCC2[C@H]1CN2c1nc(OC[C@@H]2CCCN2C)nc2c(F)c(-c3cccc4c3CCCC4)ccc12 (stereo partly drawn) [Example 369]
35 |  | C=CC(=O)N1CCN(c2nc(OC[C@@H]3CCCN3C)nc3cc(-c4cccc5c4CCCC5)ccc23)C[C@@H]1CC#N [Example 110, 2-((S)-1-acryloyl-4-(2-(((S)-1-methylpyrrolidin-2-yl)methoxy)-7-(5,6,7,8-tetrahydronaphthalen-1-yl)quinazolin-4-yl)piperazin-2-yl)acetonitrile]
10 |  | C=C(F)C(=O)N1CCN(c2nc(OC[C@@]34CCCN3CC(F)C4)nc3cc(-c4cccc5cccc(Cl)c45)ccc23)C[C@@H]1CC#N (stereo partly drawn) [Example 84]
